Reference: patent US20080177115A1, “Isotopically labeled alpha-keto acids and esters” (Spectra Gases, Inc., priority 2006, published 2008)

Tests used:
Format in all cases: physicochemical
[1] = Concentration studies: stability of pyruvic acid solutions in water at higher concentrations
Experimental: Each of these commercial solutions were subjected to light for 6-weeks at temperatures ranging from about 22° C. to about 26° C. At each of the concentrations listed below, it was discovered that the pyruvic acid solutions were stable.

[2] = Shelf storage stability of [1-^13C]pyruvic acid in water, compared by ^1H and ^13C NMR spectra; settings: 0.025M in water; for Shelf stability (NMR spectra unchanged): all conditions of Table 1
Experimental: Samples of isotopically labeled [1-^13C]pyruvic acid, having Formula VI and synthesized as discussed immediately below, were subjected to various conditions as depicted in Table 1, in order to establish the compound's shelf storage stability.
The resulting [1-^13C]pyruvic acid was tested as follows in Table 1:
^1H and ^13C NMR spectra of the distilled [1-^13C]pyruvic acid in water (0.025M) were acquired at the onset of the study and prior to exposing the samples to the various conditions specified in Table 1. ^1H and ^13C NMR spectra were again acquired for each of the samples after being exposed to the aforementioned conditions on a weekly basis for 12-weeks. The spectra acquired after exposure were compared visually and appeared to remain unchanged as compared with the spectra acquired prior to exposure, i.e. the spectra were as expected for [1-^13C]pyruvic acid in water. As such, it was concluded that each of the samples were shelf stable. Similarly, ^1H and ^13C NMR spectra acquired after 17-weeks of exposure remained unchanged as compared with the spectra acquired prior to exposure.

[3] = Titration of aqueous sample with sodium hydroxide, composition by HPLC (dimer formation); settings: pH of about 6.2 after titration with sodium hydroxide
Description: The molarity of sample 4 was confirmed to be 0.025M by titrating the aqueous sample with sodium hydroxide. […] It was also discovered that at pHs greater than 5.8, such as at a pH of about 6.2, some of the pyruvic acid was present in the form of a dimerized sodium salt. […] As such, it was discovered that to minimize dimmer formation, it may be necessary to control the pH of [1-^13C]pyruvate solutions, and in particular, any aqueous solution should be maintained at a pH of about 6.5 or less, more preferably 6.0 or less, and even more preferably 5.8 or less.

[4] = Sample 3: Room temperature (about 22° C. to about 26° C.), Dark
[5] = Sample 4: Room temperature (about 22° C. to about 26° C.), Light

SMILES	Stability of solutions in water ([1]; each of the concentrations of Table 2, light, 6-weeks, about 22° C. to about 26° C.)	Stability of solutions in water at higher concentrations (believed) ([1]; at least the concentrations of Table 2 in water, inferred from commercial pyruvic acid)	Shelf stability, 12 weeks ([2]; Sample 1: −10° C., Dark)	Shelf stability, 17 weeks ([2]; Sample 1: −10° C., Dark)	Shelf stability, 12 weeks ([2]; Sample 2: 4° C., Dark)	Shelf stability, 17 weeks ([2]; Sample 2: 4° C., Dark)	Shelf stability, 12 weeks [2, 4]	Shelf stability, 17 weeks [2, 4]	Shelf stability, 12 weeks [2, 5]	Shelf stability, 17 weeks [2, 5]	Shelf stability (NMR spectra unchanged) ([2]; 17-weeks)	Shelf stability (NMR spectra unchanged) ([2]; weekly for 12-weeks)	Content of dimerized [1-^13C]pyruvate salt by HPLC [3]	Content of sodium [1-^13C]pyruvate by HPLC [3] [%]	Share of the pyruvic acid accounted for by dimerized salt [3]
CC(=O)C(=O)O [Pyruvic acid, 2-oxopropanoic acid, reference compound]	stable	–	–	–	–	–	–	–	–	–	–	–	–	–	–
CC(=O)[13C](=O)O [[1-^13C]pyruvic acid]	–	stable	Stable	Stable	Stable	Stable	Stable	Stable	Stable	Stable	shelf stable	shelf stable	2-4%	89	4-6%
